For assay [1], the target named is T1, Recombinant full-length human IDO1 (Homo sapiens, UniProt P14902).
T1 construct: Recombinant full-length human IDO1 with a N-terminal hexahistidine tag; hexahistidine (His6) (N); made in house; host or cells: E. coli
The assay is described as follows: IDO1 enzymatic assay (NFK quantified by LCMS). The class given is biochemical. The note with it: 2 nM enzyme, 5 μM L-tryptophan, pH6.5, 30 minutes pre-incubation at RT; mean values when measured multiple times; read-out: hIDO activity (IC50 in nM). The method in brief:
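IC50 comes from four-parameter logistic fits of duplicate data, with NFK quantified by LCMS and normalized to L-Trp-(indole-d5). Compound (0.5 nM–10 μM) was preincubated 30 min at RT with 2 nM E. coli-expressed IDO1 before a 30 min reaction with 5 μM tryptophan in pH 6.5 buffer containing ascorbate and methylene blue.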

For assay [2], the target named is T2, Recombinant human TDO comprising amino acids 19-407 (Homo sapiens, UniProt P48775).
T2 construct: Recombinant human TDO comprising amino acids 19-407 with a N-terminal hexahistidine tag; hexahistidine (His6) (N); made in house; host or cells: E. coli
T2 sequence (P48775 19-406 limits assumed): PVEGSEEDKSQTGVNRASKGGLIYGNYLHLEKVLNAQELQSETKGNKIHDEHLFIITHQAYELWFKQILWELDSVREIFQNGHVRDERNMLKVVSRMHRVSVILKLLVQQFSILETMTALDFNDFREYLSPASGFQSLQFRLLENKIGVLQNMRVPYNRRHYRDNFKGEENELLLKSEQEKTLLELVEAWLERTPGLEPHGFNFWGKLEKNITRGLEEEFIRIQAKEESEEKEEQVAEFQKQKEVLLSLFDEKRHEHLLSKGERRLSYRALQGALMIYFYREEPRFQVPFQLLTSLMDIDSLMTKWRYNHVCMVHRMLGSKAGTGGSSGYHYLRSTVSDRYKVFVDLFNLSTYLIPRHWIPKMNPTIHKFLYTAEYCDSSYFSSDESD
The assay can be described thus: TDO2 enzymatic assay (NFK quantified by LCMS). The note with it: 15 nM enzyme, 200 μM L-tryptophan, pH7, 30 minutes pre-incubation at RT; mean values when measured multiple times; read-out: hTDO activity (IC50 in nM). The class given is biochemical. The essentials:
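NFK formed over 30 min at RT from 200 μM L-tryptophan was measured by LCMS, normalized to d5-tryptophan, after compound (0.5 nM–10 μM, duplicates, 0.6% DMSO) was preincubated 30 min with 15 nM recombinant His-tagged TDO 19-407 in phosphate buffer pH 7. IC50 from four-parameter logistic fit; repeats averaged.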

T1 sequence (P14902 whole entry): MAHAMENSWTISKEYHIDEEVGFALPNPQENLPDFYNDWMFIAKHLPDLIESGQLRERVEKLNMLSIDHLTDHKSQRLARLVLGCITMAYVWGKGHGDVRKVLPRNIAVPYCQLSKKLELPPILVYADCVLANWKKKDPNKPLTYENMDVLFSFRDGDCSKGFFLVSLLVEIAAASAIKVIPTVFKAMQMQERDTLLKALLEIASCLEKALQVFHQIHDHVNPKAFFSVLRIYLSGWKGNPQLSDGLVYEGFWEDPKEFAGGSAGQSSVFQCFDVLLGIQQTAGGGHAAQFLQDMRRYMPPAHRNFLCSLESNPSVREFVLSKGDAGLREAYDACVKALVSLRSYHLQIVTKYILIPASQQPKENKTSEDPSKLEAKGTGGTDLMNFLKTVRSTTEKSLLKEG

Usually IC50 stands for the concentration that gives 50% inhibition. As to `CCc1sc2cncn2c1C(O)c1cn(-c2ccc(S(=O)(=O)N(CC)CC)cc2)nn1` (racemic) [Example 243, rac-N,N-Diethyl-4-{4-[(2-ethyl-imidazo[5,1-b]thiazol-3-yl)-hydroxy-methyl]-[1,2,3]triazol-1-yl}-benzenesulfonamide], the IC50 in assay [1] was 101 nM; in assay [2] it was over 10200 nM.

As to `O[C@@H](c1cn(-c2ccc(OCC3(F)COC3)cc2)nn1)c1c(C2CC2)sc2cncn12` [Example 145a, (R)-(2-Cyclopropyl-imidazo[5,1-b]thiazol-3-yl)-{1-[4-(3-fluoro-oxetan-3-ylmethoxy)-phenyl]-1H-[1,2,3]triazol-4-yl}-methanol], the IC50 in assay [1] is 8.77 nM; in assay [2], over 10200 nM.

Turning to `NC(=O)c1ccc(-n2cc(C(O)c3c(C4CC4)sc4cncn34)nn2)cc1` (racemic) [Example 185, rac-4-{4-[(2-Cyclopropyl-imidazo[5,1-b]thiazol-3-yl)-hydroxy-methyl]-[1,2,3]triazol-1-yl}-benzamide], the IC50 was 14.9 nM in assay [1] and over 10200 nM in assay [2].

With `CC(C)(C)OC(=O)Nc1ccc(-n2cc(C(O)c3c(-c4ccccc4)sc4cncn34)nn2)cc1` (racemic) [Example 251, rac-(4-{4-[Hydroxy-(2-phenyl-imidazo[5,1-b]thiazol-3-yl)-methyl]-[1,2,3]triazol-1-yl}-phenyl)-carbamic acid tert-butyl ester], the IC50 in assay [1] was 569 nM; in assay [2] it was over 10200 nM.

As for `COc1cccc(-n2cc(C(O)c3c(C4CC4)sc4cncn34)nn2)c1` (racemic) [Example 8, rac-(2-Cyclopropyl-imidazo[5,1-b]thiazol-3-yl)-[1-(3-methoxy-phenyl)-1H-[1,2,3]triazol-4-yl]-methanol], the values for the IC50 in assay [1] and in assay [2] were 35.5 nM and over 10200 nM, respectively.

For the molecule `CNS(=O)(=O)Nc1ccc(-n2cc(C(O)c3c(C4CC4)sc4cncn34)nn2)cc1` (racemic) [Example 256, rac-4-{4-[(2-Cyclopropyl-imidazo[5,1-b]thiazol-3-yl)-hydroxy-methyl]-[1,2,3]triazol-1-yl}-((N-methylsulfamoyl)amino)-benzene], the IC50 was 26.3 nM in assay [1] and over 10200 nM in assay [2].

Turning to `CCc1sc2cncn2c1C(O)c1cn(-c2ccc(OCCCO)c(Cl)c2)nn1` (racemic) [Example 320, rac-3-(2-Chloro-4-{4-[(2-ethyl-imidazo[5,1-b]thiazol-3-yl)-hydroxy-methyl]-[1,2,3]triazol-1-yl}-phenoxy)-propan-1-ol], the IC50 in assay [1] stood at 2.1 nM; in assay [2] it was 7780 nM.

For the molecule `CCc1sc2cncn2c1C(O)c1cn(-c2ccc(OCC3(F)COC3)c(Cl)c2)nn1` (racemic) [Example 317, rac-{1-[3-Chloro-4-(3-fluoro-oxetan-3-ylmethoxy)-phenyl]-1H-[1,2,3]triazol-4-yl}-(2-ethyl-imidazo[5,1-b]thiazol-3-yl)-methanol], the IC50 in assay [1] is 7.18 nM; in assay [2], over 10200 nM.

As to `COc1ccc(-n2nnc(C(O)c3c(C)sc4cncn34)c2C)cc1` (racemic) [Example 255, rac-[1-(4-Methoxy-phenyl)-5-methyl-1H-[1,2,3]triazol-4-yl]-(2-methyl-imidazo[5,1-b]thiazol-3-yl)-methanol], the IC50 was found to be 14.2 nM in assay [1] and 6940 nM in assay [2].

In the case of `COc1ccc(-n2nnc(C(O)c3c(C4CC4)sc4cncn34)c2C(C)C)cc1` (racemic) [Example 280, rac-(2-Cyclopropyl-imidazo[5,1-b]thiazol-3-yl)-[5-isopropyl-1-(4-methoxy-phenyl)-1H-[1,2,3]triazol-4-yl]-methanol], the results for the IC50 in assay [1] and in assay [2] were 53.2 nM and over 10200 nM, respectively.

As for `COc1ccc(-n2cc(C(O)c3c(C4CC4)sc4cncn34)nn2)cc1I` (racemic) [Example 291, rac-(2-Cyclopropyl-imidazo[5,1-b]thiazol-3-yl)-[1-(3-iodo-4-methoxy-phenyl)-1H-[1,2,3]triazol-4-yl]-methanol], the figures for the IC50 in assay [1] and in assay [2] were 41.1 nM and over 10200 nM, respectively.

On to `N#Cc1ccc(-c2ccc(C(O)c3c(C4CC4)sc4cncn34)s2)cc1` (racemic) [Example 173, rac-4-{5-[(2-Cyclopropyl-imidazo[5,1-b]thiazol-3-yl)-hydroxy-methyl]-thiophen-2-yl}-benzonitrile], for which the IC50 is 732 nM in assay [1] and over 10200 nM in assay [2].

On to `Cn1ccc2cc(-n3cc(C(O)c4c(C5CC5)sc5cncn45)cn3)cnc21` (racemic) [Example 229, rac-(2-Cyclopropyl-imidazo[5,1-b]thiazol-3-yl)-[1-(1-methyl-1H-pyrrolo[2,3-b]pyridin-5-yl)-1H-pyrazol-4-yl]-methanol], for which the values for the IC50 in assay [1] and in assay [2] were 43.7 nM and 1440 nM, respectively.

As for `COc1ccc(-n2cc(C(O)c3c(-c4cccc(F)c4)sc4cncn34)nn2)cc1` (racemic) [Example 64, rac-[2-(3-Fluoro-phenyl)-imidazo[5,1-b]thiazol-3-yl]-[1-(4-methoxy-phenyl)-1H-[1,2,3]triazol-4-yl]-methanol], the values for the IC50 in assay [1] and in assay [2] were 177 nM and over 10200 nM, respectively.

`OC(c1cn(-c2cccc3[nH]ccc23)nn1)c1c(C2CC2)sc2cncn12` (racemic) [Example 20, rac-(2-Cyclopropyl-imidazo[5,1-b]thiazol-3-yl)-[1-(1H-indol-4-yl)-1H-[1,2,3]triazol-4-yl]-methanol]: the IC50 is 21.3 nM in assay [1] and over 10200 nM in assay [2].

In the case of `CCc1sc2cncn2c1C(O)c1cn(Cc2ccccc2)nn1` (racemic) [Example 53, rac-(1-Benzyl-1H-[1,2,3]triazol-4-yl)-(2-ethyl-imidazo[5,1-b]thiazol-3-yl)-methanol], the IC50 is 73.6 nM in assay [1] and over 10200 nM in assay [2].

Take `O[C@@H](c1cn(-c2ccc(OCCC3(O)CC3)cc2)nn1)c1c(C2CC2)sc2cncn12` [Example 142a, 1-[2-(4-{4-[(R)-(2-Cyclopropyl-imidazo[5,1-b]thiazol-3-yl)-hydroxy-methyl]-[1,2,3]triazol-1-yl}-phenoxy)-ethyl]-cyclopropanol]: the results for the IC50 in assay [1] and in assay [2] were 9.51 nM and over 10200 nM, respectively.

As to `CCc1sc2cncn2c1C(O)c1cn(-c2ccc(C(=O)NCCOC)cc2)nn1` (racemic) [Example 196, rac-4-{4-[(2-Ethyl-imidazo[5,1-b]thiazol-3-yl)-hydroxy-methyl]-[1,2,3]triazol-1-yl}-N-(2-methoxy-ethyl)-benzamide], the IC50 in assay [1] is 17.1 nM; in assay [2], over 10200 nM.

With `CCc1sc2cncn2c1C(O)c1cn(-c2ccc(C3(CO)CC3)cc2)nn1` (racemic) [Example 48, rac-(2-Ethyl-imidazo[5,1-b]thiazol-3-yl)-{1-[4-(1-hydroxymethyl-cyclopropyl)-phenyl]-1H-[1,2,3]triazol-4-yl}-methanol], the IC50 in assay [1] is 60.6 nM; in assay [2], over 10200 nM.

With `CCc1sc2cncn2c1C(O)c1cn(-c2ccc(S(=O)(=O)N(C)C)cc2)nn1` (racemic) [Example 241, rac-4-{4-[(2-Ethyl-imidazo[5,1-b]thiazol-3-yl)-hydroxy-methyl]-[1,2,3]triazol-1-yl}-N,N-dimethyl-benzenesulfonamide], the figures for the IC50 in assay [1] and in assay [2] were 66 nM and over 10200 nM, respectively.

`N#CCCNC(=O)c1ccc(-n2cc(C(O)c3c(C4CC4)sc4cncn34)nn2)cc1` (racemic) [Example 108, rac-N-(2-Cyano-ethyl)-4-{4-[(2-cyclopropyl-imidazo[5,1-b]thiazol-3-yl)-hydroxy-methyl]-[1,2,3]triazol-1-yl}-benzamide]: the IC50 in assay [1] was 10 nM; in assay [2], over 10200 nM.

For `CCc1sc2cncn2c1C(O)c1cn(-c2ccc(NC(=O)c3ccccc3)cc2)nn1` (racemic) [Example 230, rac-N-(4-{4-[(2-Ethyl-imidazo[5,1-b]thiazol-3-yl)-hydroxy-methyl]-[1,2,3]triazol-1-yl}-phenyl)-benzamide], the IC50 in assay [1] was found to be 28.7 nM; in assay [2], 2710 nM.

With `Cc1sc2cncn2c1C(O)c1cn(-c2cncc3ccccc23)nn1` (racemic) [Example 61, rac-(1-Isoquinolin-4-yl-1H-[1,2,3]triazol-4-yl)-(2-methyl-imidazo[5,1-b]thiazol-3-yl)-methanol], the values for the IC50 in assay [1] and in assay [2] were 493 nM and over 10200 nM, respectively.

For the molecule `CCOc1ncc(-n2cc(C(O)c3c(C4CC4)sc4cncn34)nn2)cn1` (racemic) [Example 65, rac-(2-Cyclopropyl-imidazo[5,1-b]thiazol-3-yl)-[1-(2-ethoxy-pyrimidin-5-yl)-1H-[1,2,3]triazol-4-yl]-methanol], the IC50 was 14.2 nM in assay [1] and over 10200 nM in assay [2].

In the case of `O[C@@H](c1cn(-c2ccc(OCC3(F)COC3)c(Cl)c2)nn1)c1c(C2CC2)sc2cncn12` [Example 282, (R)-{1-[3-Chloro-4-(3-fluoro-oxetan-3-ylmethoxy)-phenyl]-1H-[1,2,3]triazol-4-yl}-(2-cyclopropyl-imidazo[5,1-b]thiazol-3-yl)-methanol], the IC50 is 5.58 nM in assay [1] and over 10200 nM in assay [2].

Take `O=S(=O)(c1ccc(-n2cc(C(O)c3c(C4CC4)sc4cncn34)nn2)cc1)N1CCCC1` (racemic) [Example 237, rac-(2-Cyclopropyl-imidazo[5,1-b]thiazol-3-yl)-{1-[4-(pyrrolidine-1-sulfonyl)-phenyl]-1H-[1,2,3]triazol-4-yl}-methanol]: the IC50 in assay [1] is 155 nM; in assay [2] it was over 10200 nM.
